Reference: patent US9063163B2, “Lyophilised dabigatran” (Boehringer Ingelheim International GmbH, priority 2009, dated 2015)

Assays:
[1] = Solubility of dabigatran (descriptive); type: physicochemical
[2] = Hygroscopicity of dabigatran (descriptive); type: physicochemical; details: leads to formation of different hydrated forms

Question: Which Solubility [1] does the source give for `[H]/N=C(/N)c1ccc(NCc2nc3cc(C(=O)N(CCC(=O)O)c4ccccn4)ccc3n2C)cc1` [dabigatran] here?
Answer: sparingly soluble

Question: And the Hygroscopicity [2]?
Answer: hygroscopic
